Legend:
Akkermansia muciniphila = conditions: articles reported so far; mice; cited from earlier work
[1] = test system: bacteria of the genus Akkermansia (Akkermansia muciniphila); assay: Intestinal bacterial flora in cecum contents, 16S rRNA sequencing: Akkermansia; type: in vivo; conditions: diet containing 0.02% astaxanthin for four weeks vs normal diet, 6-week-old Wistar rats
Description: Thus, as detailed below, 6-week-old Wistar rats (rodents) were used to compare the intestinal bacterial floras of a group fed with an astaxanthin-containing diet for four weeks and a group fed with a normal diet for four weeks. […] Six-week-old Wistar rats (rodents) were used to compare the intestinal bacterial flora of a group fed with a diet containing 0.02% astaxanthin (an Asx group) and the intestinal bacterial flora of a group fed with a normal diet (a control group). Saline or corticotropin-releasing hormone (CRH) was intravenously administered to the rats after feeding each group with each corresponding diet for four weeks. Three hours after administration, the rats were sacrificed and the intestinal bacterial floras in the cecum contents of each group were analyzed and compared. […] The analysis method included extracting DNA in the cecum contents, amplifying the V3-V4 region in a 16SrRNA gene, and performing sequencing.

Clostridia = assay: Intestinal bacterial flora in cecum contents, 16S rRNA sequencing: Clostridia; type: in vivo, Wistar rats; conditions: diet containing 0.02% astaxanthin for four weeks, control group 58.2%
Text: (§1) Six-week-old Wistar rats (rodents) were used to compare the intestinal bacterial flora of a group fed with a diet containing 0.02% astaxanthin (an Asx group) and the intestinal bacterial flora of a group fed with a normal diet (a control group).
(§2) Saline or corticotropin-releasing hormone (CRH) was intravenously administered to the rats after feeding each group with each corresponding diet for four weeks.
(§3) Three hours after administration, the rats were sacrificed and the intestinal bacterial floras in the cecum contents of each group were analyzed and compared. The result is shown in the graph of FIG. 1.
(§4) The analysis method included extracting DNA in the cecum contents, amplifying the V3-V4 region in a 16SrRNA gene, and performing sequencing.

[2] = test system: intestinal peristaltic movement induced by CRH; assay: Intestinal peristaltic movement induced by CRH administration; type: in vivo, Wistar rats; conditions: diet containing 0.02% astaxanthin for four weeks; CRH intravenously
Text: as §1, §2
Furthermore, enhancement of intestinal peristaltic movement induced by administration of CRH was reduced in the Asx group.

[3] = Change in astaxanthin concentration in human blood on long-term ingestion; type: in vivo; conditions: 12 mg/day astaxanthin in free form (two capsules of Haematococcus alga extract) for 42 days
Description: Next, a test on humans was performed to monitor how an astaxanthin concentration in blood (in blood plasma) changed when astaxanthin was ingested for a long period. A study was performed as follows:
Ten healthy Japanese males and females aged 20 years or older and younger than 50 years
The subjects ingested two capsules per day (equivalent to 12 mg/day astaxanthin in free form) together with water 30 minutes after breakfast for 42 days, with one capsule containing 60 mg of Haematococcus alga extract (equivalent to 6 mg of astaxanthin in free form) and 270 mg of edible oil and fat.
Blood collection was performed 1, 6, 13, 20, 27, 34, and 42 days after the first ingestion of the capsules to obtain blood plasma. The blood astaxanthin concentration was measured by the above-mentioned analytical method (HPLC).

Lactobacillus = assay: Intestinal bacterial flora in cecum contents, 16S rRNA sequencing: Lactobacillus; type: in vivo, Wistar rats; conditions: diet containing 0.02% astaxanthin for four weeks, control group 10.9%
Text: as §1, §2, §3, §4

Body weight of a rodent = type: in vivo; conditions: diet containing 0.02% astaxanthin vs normal diet; 24-day-old Wistar rats; PND72,76
Text: Twenty four-day-old Wistar rats (rodents) were used to compare the body weights of a group fed with a diet containing 0.02% astaxanthin (an Asx group) and the body weights of a group fed with a normal diet (a control group).

[4] = Astaxanthin concentration in human blood (HPLC); type: in vivo; conditions: 1 to 60 mg of astaxanthin per day
Description: Next, an astaxanthin concentration in human blood was investigated.
In this context, a blood astaxanthin concentration means an astaxanthin concentration in blood serum or blood plasma.
A blood astaxanthin concentration was measured by HPLC.
Five hundred microliters of 50 μg/ml butylhydroxytoluene in ethanol, 100 μl of 100 ng/ml internal standard (ethyl 8′-apo-beta-caroten-8′-oate, Carote Nature, 1010) in acetone, and 500 μl of distilled water were added to 100 μl of the obtained blood serum or blood plasma sample, and the mixture was stirred vigorously for 15 seconds by a vortex mixer.
Furthermore, 5 ml of hexane was added to the blood serum or blood plasma, and subsequently the mixture was stirred vigorously for 15 seconds by the vortex mixer three times and centrifuged at 3500 rpm for 10 minutes.
Four milliliters of the supernatant after centrifugation was collected and filtrated through a membrane filter with a mesh size of 0.45 μm. […]
In parallel, a standard solution was prepared by adding 1 ml of 10 μg/ml internal standard (ethyl 8′-apo-beta-caroten-8′-oate) in acetone to 100 ml of 100 ng/ml astaxanthin (astaxanthin, ALEXIS BIOCHEMICALS, 460-031-M250) in acetone, and was also subjected to reverse-phase HPLC. The blood astaxanthin concentration was calculated based on the peak area ratio of the above-mentioned two solutions obtained by HPLC. […]

[5] = in vivo; cited from earlier work

SMILES: COc1cc(CNC(=O)CCCC/C=C/C(C)C)ccc1O [Capsaicin]
- effect on Akkermansia muciniphila population (Akkermansia muciniphila): effect of increasing Akkermansia muciniphila

SMILES: CC1=C(/C=C/C(C)=C/C=C/C(C)=C/C=C/C=C(C)/C=C/C=C(C)/C=C/C2=C(C)C(=O)C(O)CC2(C)C)C(C)(C)CC(O)C1=O (stereo not drawn) [astaxanthin, 3,3′-dihydroxy-β,β-carotene-4,4′-dione]
- number of bacteria of the genus Akkermansia in the Asx group relative to the control group [1]: about 11.7 times
- proportion of Clostridia in the intestinal bacterial flora of the Asx group (Clostridia): 47.6%
- enhancement of intestinal peristaltic movement induced by administration of CRH [2]: reduced
- astaxanthin concentration in human blood plasma at plateau [3]: around 200 ng/ml
- time after beginning of ingestion at which blood plasma concentration started to plateau [3]: about 6 days
- proportion of Lactobacillus in the intestinal bacterial flora of the Asx group (Lactobacillus): 5.9%
- increase in body weight (Body weight of a rodent): clearly less
- blood astaxanthin concentration (serum or plasma), range [4]: no more than 600 ng/ml
- absorption percentage in the intestine [5]: about 5%

Reference: patent US20210052516A1, “METHOD FOR INCREASING AKKERMANSIA IN INTESTINAL BACTERIAL FLORA BY INGESTING ASTAXANTHIN” (Fuji Chemical Industries Co., Ltd., priority 2018, published 2021)
